Source: US11058690B2, “Use of cytochrome bc1 complex inhibitor in preparing pharmaceutical composition” (BEIJING WEILANZHIYUAN MEDICAL TECHNOLOGY CO., LTD., priority 2017, dated 2021)

How the values were obtained:
[1] = system: Mouse mononuclear macrophage RAW 264.7; assay: nitric oxide production by LPS-stimulated macrophages (Griess assay); type: cell-based; settings: LPS 1 μg/mL, 24 h
[2] = system: SD rats; assay: carrageenan-induced rat paw swelling test; type: in vivo
Procedure: Eighteen healthy adult male mice were randomly divided into 3 groups. FAPM (100 mg/kg) was administered intraperitoneally once a day for 3 consecutive days. The control group was injected with the same amount of solvent, and the positive drug dexamethasone (4 mg/kg) was administered intragastrically once a day for 3 consecutive days. Thirty minutes after the last administration, 0.1 mL of 1% carrageenan was injected subcutaneously into the right hind paw of each rat, and the plantar thickness was measured before injection and 1, 2 and 3 hours after injection. Three hours later, the rats were sacrificed by dislocation. The feet were cut off from the knee joints and weighed on a precision balance. The swelling degree of the paw (right foot weight-left foot weight) was calculated.

[3] = system: rat uterine smooth muscle; assay: contraction of isolated rat uterine smooth muscle strips induced by PGF2α; type: cell-based; settings: PGF2α (450 nM); for IC50: area under the contraction curve 10 minutes after drug, read-out: IC50, inhibition of uterine smooth muscle contraction
Procedure: Female healthy Wistar rats weighing 230-270 g were used in the experiment. At 2 days before the experiment, Diethylstilbestrol suspension was injected intraperitoneally once at 0.1 mg/kg, resulting in artificial estrus. The rats were sacrificed by cervical dislocation, and the uterus was removed by laparotomy and immediately placed in a glass plate containing Tyrode's solution. Connective and adipose tissues attached to the uterine wall were carefully peeled off, the uterus was cut open along the mesangial line and laid flat on the bottom of the glass plate, then one side of the uterus was divided into left and right uterine muscle strips by using a surgical blade along the uterine contraction band running along smooth muscle, the two ends of the uterine muscle strip on one side were ligated with wires respectively, and then transferred into a nutrient tube which was aerated with oxygen and filled with 5 ml of Tyrode's solution and preheated to 37.2±0.5° C., with a lower end fixed and an upper end connected with a tension sensor. The materials stood for 20-30 minutes, liquid was changed 2-3 times, then the uterus was given a load of 1 g and kept for 30-60 minutes until the uterus had regular contraction waves, 40 mM KCL solution was provided for 10 minutes, and the function of the uterine muscle strips was evaluated. Then the muscle strips were relaxed and washed 2-3 times with Tyrode's solution, then let stand for 30 minutes; after standing, the uterine muscle strips were given a load of 1 g and kept for 30-60 minutes, and the administration and the observation were carried out after the uterine muscle strips contracted stably (i.e. regular contraction waveforms appear in a microcomputer display screen), the changes of relevant data such as contraction tension, amplitude and area under the contraction curve of the uterine smooth muscle strips were recorded, and the drug given was evaluated. During the experiment, the working temperature of the Tyrode's solution was kept at 37.2±0.5° C., and oxygen was continuously aerated into the nutrient tube with 1-2 bubbles per second. A cumulative dosing method was adopted, and 5 μl was administered each time, from low concentration to high concentration. A final drug concentration refers to the concentration of the drug dissolved in 5 ml Tyrode's solution in a […] tube.
Fluacrypyrim (FAPM), the first strobilurin acaricide developed by BASF SE and Nippon Soda Co., Ltd., is a Qo site inhibitor of the mitochondrial cytochrome bc1 complex. […] The area under the smooth muscle contraction curve was calculated before drug intervention and 10 minutes after different doses of drug intervention respectively. A drug dose-effect curve was plotted by taking the area under the smooth muscle contraction curve caused by PGF2α as 100%, to calculate the median effective dose (IC50 value) of the drug for inhibiting uterine smooth muscle contraction.

[4] = system: Kunming male mice; assay: acetic acid writhing test on mice; type: in vivo, mouse; settings: for Writhe starting time / Number of writhing times: Table 3; for Number of writhing times: within 30 min
[5] = system: rat uterine smooth muscle; assay: contraction of rat uterine smooth muscle induced by oxytocin; type: cell-based; settings: oxytocin (1 mU/ml)
Procedure: (§1) Female healthy Wistar rats weighing 230-270 g were used in the experiment. At 2 days before the experiment, Diethylstilbestrol suspension was injected intraperitoneally once at 0.1 mg/kg, resulting in artificial estrus. The rats were sacrificed by cervical dislocation, and the uterus was removed by laparotomy and immediately placed in a glass plate containing Tyrode's solution. […] The materials stood for 20-30 minutes, liquid was changed 2-3 times, then the uterus was given a load of 1 g and kept for 30-60 minutes until the uterus had regular contraction waves, 40 mM KCL solution was provided for 10 minutes, and the function of the uterine muscle strips was evaluated. Then the muscle strips were relaxed and washed 2-3 times with Tyrode's solution, then let stand for 30 minutes; after standing, the uterine muscle strips were given a load of 1 g and kept for 30-60 minutes, and the administration and the observation were carried out after the uterine muscle strips contracted stably (i.e. regular contraction waveforms appear in a microcomputer display screen), the changes of relevant data such as contraction tension, amplitude and area under the contraction curve of the uterine smooth muscle strips were recorded, and the drug given was evaluated. […]

[6] = system: rat uterine smooth muscle; assay: contraction of rat uterine smooth muscle induced by potassium chloride; type: cell-based; settings: potassium chloride (16 mM)
Procedure: as §1

[7] = system: Kunming female mice; assay: PGF2α-induced dysmenorrhea model in mice (diethylstilbestrol sensitization); type: in vivo, mouse; settings: for Number of writhing times: within 30 min
Procedure: A mouse dysmenorrhea model was established with reference to Yang L., Cao Z., Yu B. & Chai C. An in vivo mouse model of primary dysmenorrhea. Exp Anim. 2015, August 64, 295-303. Adult healthy Kunming female mice were randomly grouped, 10 mice in each group. Experimental mice were intragastrically given diethylstilbestrol 0.2 mg daily for 12 days. Different kinds and dosages of the inhibitors of the cytochrome bc1 complex were given intraperitoneally or intragastrically 30 min after the last administration. Indometacin (50 mg/kg) was injected intraperitoneally as positive control, PGF2α (1.3 mg/kg) or oxytocin (20 U/kg) was injected intraperitoneally 1 h later, and the writhe starting time (reaction latency) and the number of writhing times within 30 min were observed and recorded.

[8] = system: rat uterine smooth muscle; assay: contraction of rat uterine smooth muscle induced by acetylcholine; type: cell-based; settings: acetylcholine (0.25 μM)
Procedure: as §1

[9] = system: mice; assay: xylene-induced mouse ear swelling test; type: in vivo
Procedure: Fifty healthy adult male mice were randomly divided into 5 groups. […] […] One hour after administration, 20 μL of xylene was evenly applied to both sides of the right ear of mouse, and xylene was not applied to the left ear as self control. One hour later, the two ears were cut off, and two ear pieces were removed from the same parts of the two ears with a 6 mm hole punch. The two ear pieces were weighed on a precision balance, and the swelling degree (right ear piece weight-left ear piece weight) and swelling inhibition rate (right ear piece weight-left ear piece weight)/left ear piece weight×100%) were calculated.

[10] = Table 7, 100 mg/Kg intraperitoneal
[11] = Table 7, 200 mg/Kg intraperitoneal

CO/C=C(/C(=O)OC)c1ccccc1COc1cc(C(F)(F)F)nc(OC(C)C)n1 [FAPM, fluacrypyrim]
Maximum inhibition rate ([1]; in %): 80%
IC50 ([1]; Mus musculus, RAW264.7, read-out: IC50, NO production): 3800 nM
Paw swelling thickness 1 h ([2]; 100 mg/Kg intraperitoneal once a day for 3 days, 1 h after carrageenan): 5.72 ± 0.29 mm
Paw swelling thickness 2 h ([2]; 100 mg/Kg intraperitoneal once a day for 3 days, 2 h after carrageenan): 5.92 ± 0.19 mm
Paw swelling thickness 3 h ([2]; 100 mg/Kg intraperitoneal once a day for 3 days, 3 h after carrageenan): 6.24 ± 0.20 mm
Paw swelling (right foot weight-left foot weight) ([2]; 100 mg/Kg intraperitoneal once a day for 3 days, 3 hours after carrageenan): 0.834 ± 0.32 g
carrageenan-induced rat paw swelling ([2]; 100 mg/kg intraperitoneal): significantly inhibited
inhibitory effect on PGF2α-induced contraction ([3]; amplitude and frequency): in a dose-dependent manner
IC50 [3]: 1690 ± 160 nM
IC50 ([3]; Rattus norvegicus, 10 min): 1840 ± 80 nM
curative effect compared with indomethacin ([4]; 100 mg/Kg versus indomethacin 50 mg/Kg): equivalent to indomethacin at 50 mg/Kg
writhe starting time (reaction latency) compared with control group ([4]; FAPM and trifloxystrobin intraperitoneal, azoxystrobin intragastric): significantly prolonged
Writhe starting time ([4]; 50 mg/Kg intraperitoneal): 3.4 ± 1.1 min
Number of writhing times ([4]; 50 mg/Kg intraperitoneal, 1 hour before acetic acid): 25.3 ± 4.7
Writhe starting time ([4]; 100 mg/Kg intraperitoneal): 4.6 ± 1.5 min
Number of writhing times ([4]; 100 mg/Kg intraperitoneal): 17.6 ± 3.5
Writhe starting time ([4]; 200 mg/Kg intraperitoneal): 11.9 ± 2.6 min
Number of writhing times ([4]; 200 mg/Kg intraperitoneal): 2.4 ± 2.2
IC50 [5]: 1600 ± 80 nM
IC50 [6]: 1210 ± 70 nM
curative effect compared with indomethacin ([7]; 50 mg/Kg versus indomethacin 50 mg/Kg): equivalent to indomethacin at 50 mg/Kg
Writhe starting time ([7]; 200 mg/Kg intraperitoneal): significantly prolonged
effect on number of writhing times ([7]; FAPM intraperitoneal, azoxystrobin intragastric, 50, 100 and 200 mg/Kg one hour before): in a dose-dependent manner
Writhe starting time ([7]; Table 7, 50 mg/Kg intraperitoneal): 1.24 ± 0.66 min
Number of writhing times ([7]; Table 7, 50 mg/Kg intraperitoneal, 1 h before PGF2α (1.3 mg/kg)): 18.3 ± 3.3
Writhe starting time [7, 10]: 1.43 ± 0.73 min
Number of writhing times [7, 10]: 12.5 ± 1.7
Writhe starting time [7, 11]: 2.15 ± 0.34 min
Number of writhing times [7, 11]: 5.8 ± 1.2
IC50 [8]: 1360 ± 40 nM
Ear swelling ([9]; 100 mg/Kg intraperitoneal, 1 hour after xylene): 7.83 ± 3.85 mg
xylene-induced mouse ear swelling ([9]; 100 mg/kg intraperitoneal): significantly inhibited
